Our source for the Ki values is US7550469B2, “Heterocyclic amide derivatives and their use as dopamine D3 receptor ligands” (Aventis Pharmaceuticals Inc., priority 2001, dated 2009).

Where two headings read alike, the source gives them in different places.

The experiment deals with T1, cloned human dopamine D3 receptors (Homo sapiens, UniProt P35462).
T1 construct: expressed in transfected cells; membrane homogenate
In words: [N-Methyl-3H]Spiroperidol binding to cloned human dopamine D3 receptors (Protocol 1). An outline of the steps: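 Radioligand displacement with [N-methyl-3H]spiroperidol used a physiological-salt Tris buffer (0.05 M, pH 7.7; NaCl 120 mM, KCl 5 mM, CaCl2 2 mM, MgCl2 1 mM) and membranes of a high-expressing stable CHO clone carrying human D3. Total ligand concentration came from measured added CPM; 0.1% ascorbic acid was optional for oxidizable compounds.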

The mark [1] stands for this setting: the 14th table, read-out: D3 Ki.
Setting [2] is: the 21st table, read-out: D3 Ki.

T1 sequence (P35462 whole entry): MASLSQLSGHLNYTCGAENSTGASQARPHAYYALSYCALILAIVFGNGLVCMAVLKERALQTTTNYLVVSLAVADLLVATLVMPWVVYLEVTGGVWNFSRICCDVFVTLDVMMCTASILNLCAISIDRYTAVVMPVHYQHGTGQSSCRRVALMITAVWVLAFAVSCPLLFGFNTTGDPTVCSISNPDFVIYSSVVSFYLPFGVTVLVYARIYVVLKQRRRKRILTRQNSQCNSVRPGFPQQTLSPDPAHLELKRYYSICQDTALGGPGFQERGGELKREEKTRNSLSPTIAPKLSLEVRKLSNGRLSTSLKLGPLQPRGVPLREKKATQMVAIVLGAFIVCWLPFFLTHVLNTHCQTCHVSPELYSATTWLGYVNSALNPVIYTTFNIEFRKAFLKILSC

For `Cc1ccccc1C(=O)NCCCCCN1CCN(c2csc3cc(C(F)(F)F)ccc23)CC1` [compound 826771], the Ki runs as follows: (read-out: D3K1) 6.7 nM; under setting [1], 6.7 nM.

Take `O=C(NCCCCCN1CCN(c2csc3cc(C(F)(F)F)ccc23)CC1)c1cccc(F)c1` [compound 826772]: the Ki reads like this: (read-out: D3K1) 7.8 nM; under setting [1], 7.8 nM. For the compound `O=C(NCCCCCN1CCN(c2csc3cc(C(F)(F)F)ccc23)CC1)c1cc2ccccc2s1` [compound 826773], the Ki came to 11 nM (read-out: D3K1) and 11 nM under setting [1]. Consider `O=C(NCCCCCN1CCN(c2csc3cc(F)ccc23)CC1)c1cccs1` [compound 826774], for which, under setting [1], the Ki came to 8.25 nM. With `O=C(NCCCCCN1CCN(c2csc3cc(F)ccc23)CC1)c1cccc(Cl)c1` [compound 826775], the Ki under setting [1] was 6.24 nM. Still for that read-out and setting: under `COc1cc(OC)cc(C(=O)NCCCCCN2CCN(c3csc4cc(F)ccc34)CC2)c1` [compound 826776] stands 1.27 nM. Consider `O=C(NCCCCCN1CCN(c2csc3cc(F)ccc23)CC1)c1ccc(OC(F)(F)F)cc1` [compound 826777], for which the Ki under setting [1] amounted to 4.56 nM. The same measure, in the same setting: with `O=C(NCCCCCN1CCN(c2csc3cc(F)ccc23)CC1)c1cccc2ccccc12` [compound 826778] the figure was 2.75 nM; with `O=C(NCCCCCN1CCN(c2csc3cc(F)ccc23)CC1)c1ccc2ccccc2c1` [compound 826779], 0.984 nM; with `O=C(NCCCCCN1CCN(c2csc3cc(F)ccc23)CC1)c1cccc(C(F)(F)F)c1` [compound 826780], 4.46 nM. Still for that read-out and setting: under `Cc1ccccc1C(=O)NCCCCCN1CCN(c2csc3cc(F)ccc23)CC1` [compound 826781] stands 9.94 nM; under `O=C(NCCCCCN1CCN(c2csc3cc(F)ccc23)CC1)c1cccc(F)c1` [compound 826782], 4.55 nM; under `O=C(NCCCCCN1CCN(c2csc3cc(F)ccc23)CC1)c1cc2ccccc2s1` [compound 826783], 2.7 nM. On the same count and under the same terms, with `O=C(NCCCCCN1CCN(c2csc3cc(F)ccc23)CC1)c1cc2ccccc2[nH]1` [compound 826784] the figure was 3.28 nM; with `COc1ccc2[nH]c(C(=O)NCCCCCN3CCN(c4csc5cc(F)ccc45)CC3)cc2c1` [compound 826785], 1.43 nM; with `Cn1c(C(=O)NCCCCCN2CCN(c3csc4cc(F)ccc34)CC2)cc2ccccc21` [compound 826786], 1.09 nM.

As for `O=C(NCCCCCN1CCN(c2csc3cc(F)ccc23)CC1)c1c[nH]c2ccccc12` [compound 826787], under setting [1], the Ki turned out to be 1.19 nM.

In the case of `O=C(NCCCCCN1CCN(c2csc3cc(F)ccc23)CC1)c1ccc2cc[nH]c2c1` [compound 826790], the Ki under setting [1] amounted to 5.66 nM. Turning to `O=C(NCCCCCN1CCN(c2csc3cc(F)ccc23)CC1)c1n[nH]c2ccccc12` [compound 826791], the Ki under setting [1] was 11.9 nM.

`CC1=C(C(=O)NCCCCCN2CCN(c3csc4cc(F)ccc34)CC2)Cc2ccccc21` [compound 826792]: the Ki under setting [1] worked out at 3.91 nM. In the case of `O=C(NCCCCCN1CCN(c2csc3cc(F)ccc23)CC1)c1cc2ccccc2o1` [compound 826793], the Ki under setting [1] worked out at 3.7 nM.

For the compound `O=C(NCCCCCN1CCN(c2csc3cc(C(F)(F)F)ccc23)CC1)c1cc2ccccc2[nH]1` [compound 826794], the Ki was determined as 11.1 nM (read-out: D3K1) and 11.1 nM under setting [1].

Turning to `COc1ccc2[nH]c(C(=O)NCCCCCN3CCN(c4csc5cc(C(F)(F)F)ccc45)CC3)cc2c1` [compound 826795], the Ki by setting is: (read-out: D3K1) 13.9 nM; under setting [1], 13.9 nM. On to `Cn1c(C(=O)NCCCCCN2CCN(c3csc4cc(C(F)(F)F)ccc34)CC2)cc2ccccc21` [compound 826796], for which the Ki (read-out: D3K1) worked out at 14.9 nM and the Ki under setting [1] amounted to 14.9 nM. As for `O=C(NCCCCCN1CCN(c2csc3cc(C(F)(F)F)ccc23)CC1)c1c[nH]c2ccccc12` [compound 826797], the Ki came out at 36.4 nM (read-out: D3K1) and 36.4 nM under setting [1].

As to `O=C(NCCCCCN1CCN(c2csc3cc(C(F)(F)F)ccc23)CC1)c1cccc2[nH]ccc12` [compound 826798], the Ki amounted to 6.44 nM (read-out: D3K1) and 6.44 nM under setting [1]. In the case of `O=C(NCCCCCN1CCN(c2csc3cc(C(F)(F)F)ccc23)CC1)c1ccc2[nH]ccc2c1` [compound 826799], the Ki by setting is: (read-out: D3K1) 6.48 nM; under setting [1], 6.48 nM. With `O=C(NCCCCCN1CCN(c2csc3cc(C(F)(F)F)ccc23)CC1)c1ccc2cc[nH]c2c1` [compound 826800], the Ki stood at 27.2 nM (read-out: D3K1) and 27.2 nM under setting [1]. `O=C(NCCCCCN1CCN(c2csc3cc(C(F)(F)F)ccc23)CC1)c1n[nH]c2ccccc12` [compound 826801]: the Ki runs as follows: (read-out: D3K1) 49.8 nM; under setting [1], 49.8 nM.

With `CC1=C(C(=O)NCCCCCN2CCN(c3csc4cc(C(F)(F)F)ccc34)CC2)Cc2ccccc21` [compound 826802], the Ki is, setting by setting: (Table 2, read-out: D3K1) 16.9 nM; under setting [1], 16.9 nM.

Turning to `O=C(NCCCCCN1CCN(c2csc3cc(C(F)(F)F)ccc23)CC1)c1cc2ccccc2o1` [compound 826803], the Ki (Table 2, read-out: D3K1) came to 16.9 nM and the Ki under setting [1] came out at 16.9 nM.

Regarding `C[C@@H]1CN(c2csc3cc(C(F)(F)F)ccc23)C[C@H](C)N1CCCCNC(=O)c1ccc(F)cc1` [compound 826929], under setting [2], the Ki is 217 nM. Same read-out and setting: with `COc1ccc(C(=O)NCCCCN2[C@H](C)CN(c3csc4cc(C(F)(F)F)ccc34)C[C@@H]2C)cc1OC` [compound 826930] the figure was 74.7 nM. With `Cc1ccccc1C(=O)NCCCCN1[C@H](C)CN(c2csc3cc(C(F)(F)F)ccc23)C[C@@H]1C` [compound 826931], under setting [2], the Ki was 219 nM. Still for that read-out and setting: under `COc1cccc(C(=O)NCCCCN2[C@H](C)CN(c3csc4cc(C(F)(F)F)ccc34)C[C@@H]2C)c1` [compound 826932] stands 384 nM.

For `C[C@@H]1CN(c2csc3cc(C(F)(F)F)ccc23)C[C@H](C)N1CCCCNC(=O)c1ccc(-c2ccccc2)cc1` [compound 826933], under setting [2], the Ki is 276 nM. Turning to `C[C@@H]1CN(c2csc3cc(C(F)(F)F)ccc23)C[C@H](C)N1CCCCNC(=O)c1ccc(C(C)(C)C)cc1` [compound 826934], under setting [2], the Ki was 227 nM. Same read-out and setting: with `C[C@@H]1CN(c2csc3cc(C(F)(F)F)ccc23)C[C@H](C)N1CCCCNC(=O)c1cnc2ccccc2n1` [compound 826935] the figure was 268 nM; with `C[C@@H]1CN(c2csc3cc(C(F)(F)F)ccc23)C[C@H](C)N1CCCCNC(=O)c1ccc(C(F)(F)F)cc1` [compound 826936], 96.1 nM. The same measure, in the same setting: under `C[C@@H]1CN(c2csc3cc(C(F)(F)F)ccc23)C[C@H](C)N1CCCCNC(=O)c1ccncc1` [compound 826937] stands 253 nM; under `C[C@@H]1CN(c2csc3cc(C(F)(F)F)ccc23)C[C@H](C)N1CCCCNC(=O)c1cccnc1Cl` [compound 826938], 175 nM; under `C[C@@H]1CN(c2csc3cc(F)ccc23)C[C@H](C)N1CCCCNC(=O)c1ccc(F)cc1` [compound 826939], 19 nM.

As to `COc1ccc(C(=O)NCCCCN2[C@H](C)CN(c3csc4cc(F)ccc34)C[C@@H]2C)cc1OC` [compound 826940], the Ki under setting [2] was 49.2 nM. In the case of `Cc1ccccc1C(=O)NCCCCN1[C@H](C)CN(c2csc3cc(F)ccc23)C[C@@H]1C` [compound 826941], under setting [2], the Ki stood at 36.3 nM. For the compound `COc1cccc(C(=O)NCCCCN2[C@H](C)CN(c3csc4cc(F)ccc34)C[C@@H]2C)c1` [compound 826942], the Ki under setting [2] came to 57.4 nM.
